Tested on: wild type, pfpmtΔ+PfPMT and pfpmtΔ parasites
Experiment: TUNEL assay of drug-treated parasites
Assay type: cell-based, Plasmodium falciparum
Conditions: 100 nM, 24 h
Protocol: The terminal deoxynucleotidyl transferase (TdT) dUTP nick end labeling (TUNEL) kit (Roche) was used to detect apoptotic cells following the manufacturer's instructions, with some modifications. Briefly, asynchronous cultures were grown to 10% parasitemia and 1 ml of the culture aliquots were washed twice with PBS and the cell count adjusted to 1×10^6 cells/ml. Fixation was achieved by resuspending the cells in 2% paraformaldehyde solution in PBS and incubated at room temperature for 1 h. The fixed cells were washed twice with PBS, resuspended in 100 μl of 0.1% Triton X-100 in 0.1% sodium citrate solution, and incubated for 2 min on ice. Cells were then washed twice in PBS and kept on ice until labeling. A positive control sample was prepared by incubating fixed and permeabilized cells with 3000 U/ml of DNase I for 15 min at room temperature followed by two washes with PBS. To label the cells, 50 μl of the TUNEL reaction mixture was added to the cell pellet and mixed gently. A negative control sample was included by treating fixed, permeabilized cells with the labeling solution in, the absence of the terminal TdT enzyme. The reaction mixtures were incubated in the dark at 37° C. for 1 h and then washed twice in PBS and resuspended in 250 μl PBS. Cells were analyzed by fluorescence microscopy at 525 nm wavelength with the FITC filter. […]

In the case of `CCN(CC)CCCC(C)Nc1ccnc2cc(Cl)ccc12` (stereo not shown) [chloroquine], the “TUNEL staining of drug-treated parasites” value was “positively stained with TUNEL”.
